According to publication PMC5007854, “β-Nitrostyrenes as Potential Anti-leishmanial Agents” (Frontiers in Microbiology, 2016):
Values after ≈ are worked out from the molar mass of the structure shown.

Tests used:
[1] = tested on: L. donovani promastigotes; assay: Dose-dependent anti-promastigote activity, IC50 and IC90; type: cell-based, Leishmania donovani; conditions: for IC50: Leishmania donovani, 72 h, 22°C, values given in μM, read-out: IC50 against promastigotes
Method: (§1) L. donovani parasites (MHOM/IN/83/AG83) were maintained in vivo in BALB/c mice. Promastigotes were routinely cultured at 22°C in medium M199 supplemented with 10% heat inactivated fetal bovine serum (FBS, HiMedia Laboratories, Mumbai, India), penicillin 100 (IU/ml), streptomycin (100 μg/ml). Log phase promastigotes were sub-cultured every 72–96 h, the inoculum being 2 × 10^6 cells/ml (Afrin et al., [2002]).
AmB was used as a standard antileishmanial drug control. The cell viability was evaluated by microscopically and the mean percentage viability was calculated as follows: Mean cell number of treated parasites / Mean cell number of untreated parasites × 100. The 50 and 90% inhibitory concentration (IC50 and IC90) i.e., the concentration of drugs that decreased the cell growth by 50 and 90% respectively was determined by graphical extrapolation after plotting the graph of % viability vs. concentration of drug (Islamuddin et al., [2014b]).
In vitro antileishmanial activity was expressed as IC50 by linear regression analysis. Values are mean ± SE of samples in triplicate from at least three independent experiments. Statistical analysis was performed using ANOVA followed by Dunnett's test. ^*P < 0.05, ^**P < 0.01 and ^***P < 0.001 compared with the untreated control group were considered significant.

[2] = tested on: Escherichia coli ATCC 25922; assay: Broth microdilution antibacterial susceptibility (MIC/MBC); type: cell-based; conditions: for MIC / MBC: Escherichia coli; for MIC: ATCC25922, 24 h, read-out: MIC, Ec ATCC 25922; for MIC / MIC, Ec ATCC 25922: broth microdilution, 35°C, 24 h; for MBC: ATCC25922, ≥99.9% reduction of original inoculum, read-out: MBC, Ec ATCC 25922
Source text: (§2) One reference each of the following species was used for their in vitro susceptibility to β-nitrostyrene in this study: Staphylococcus aureus ATCC 29213, Staphylococcus epidermidis ATCC 14990, Escherichia coli ATCC 25922, Pseudomonas aeruginosa ATCC 27853, Candida albicans ATCC 90028, Candida glabrata ATCC 90030, Aspergillus fumigatus ATCC 16424 and Aspergillus niger ATCC 16404. These strains were procured from the American Type Culture Collection (ATCC, Manassas, VA, USA).
(§3) The antibacterial and antifungal activities of the β-nitrostyrenes were performed by broth microdilution methods as per the guidelines of Clinical and Laboratory Standard Institute (Wayne, [1998], [2008a],[b],[c]) by using Mueller-Hinton broth (MHB; Becton-Dickinson, Cockeysville, MD, USA) supplemented with calcium (25 mg/L) and magnesium (12.5 mg/L) for bacterial strains while as RPMI 1640 medium with L-glutamine and without sodium bicarbonate, buffered to pH 7.0 with 0.165 M 3-(N-morpholino) propanesulfonic acid (MOPS; both from Sigma) was used for fungal strains. Stock solutions were prepared in 100% dimethyl sulfoxide (DMSO; Sigma; distilled water was used for ciprofloxacin), with a final DMSO concentration of 1% (vol. per vol.) and two-fold serial dilutions were prepared in media in amounts of 100 μL per well in 96-well U-bottom microtiter plates (Tarsons, Kolkata, India) to yield twice the final concentration required for testing, which ranged from 64 to 0.12 μg/mL for β-nitrostyrenes and 16 to 0.03 μg/mL for ciprofloxacin as well as amphotericin B. Stock inoculum suspensions of the bacteria, Candida species and Aspergillus species were prepared in sterile normal saline (0.85%) containing 0.05% polysorbate 20 (NST) from overnight (3 to 5-day old for Aspergillus species) strains grown on Trypticase soy agar (TSA; Becton-Dickinson) and potato dextrose agar (Difco Laboratories, Detroit, MI, USA) respectively at 35°C. Inocula were verified for each assay by plating onto agar plates for colony enumeration. These suspensions were further diluted in the respective test medium and a 100 μl volume of this diluted inoculum was added to each well of the plate, resulting in a final inoculum concentration of approximately 5 × 10^5 CFU/mL for bacter1ia, (Wayne, [2008a]) approximately 2.5 × 10^4 CFU/ml for Candida species (Pfaller et al., [2004]) while as 0.4 × 10^4 to 5 × 10^4 CFU/mL for Aspergillus species (Wayne, [2008c]). Untreated growth control, vehicle control (DMSO) and sterility control wells were included for each isolate tested. Ciprofloxacin and amphotericin B served as the standard drug controls for bacterial and fungal strains, respectively. The microtiter plates were incubated at 35°C for 24 h for bacterial strains and 48 h for fungal strains. The plates were read visually and the minimum inhibitory concentration (MIC) was defined as the lowest concentration of test sample that prevented visible growth with respect to the growth control.
(§4) The minimum bactericidal concentration (MBC) and minimum fungicidal concentration (MFC) were determined by plating 100 μl volumes on agar plates from the wells showing no visible growth (clear MIC well). The plates were incubated as described above in MIC measurements. […] All experiments were conducted twice in duplicates on separate occasions with freshly prepared inoculums and stock solutions.

[3] = tested on: Staphylococcus epidermidis ATCC 14990; assay: as above; type: cell-based; conditions: for MIC / MBC: Staphylococcus epidermidis; for MIC: ATCC14990, 24 h, read-out: MIC, Se ATCC 14990; for MIC / MIC, Se ATCC 14990: broth microdilution, 35°C, 24 h; for MBC: ATCC14990, ≥99.9% reduction of original inoculum, read-out: MBC, Se ATCC 14990
Source text: as §2, §3, §4

[4] = tested on: Staphylococcus aureus ATCC 29213; assay: as above; type: cell-based; conditions: for MIC / MBC: Staphylococcus aureus; for MIC: ATCC29213, 24 h, read-out: MIC, Sa ATCC 29213; for MIC / MIC, Sa ATCC 29213: broth microdilution, 35°C, 24 h; for MBC: ATCC29213, ≥99.9% reduction of original inoculum, read-out: MBC, Sa ATCC 29213
Source text: as §2, §3, §4

[5] = tested on: Pseudomonas aeruginosa ATCC 27853; assay: as above; type: cell-based; conditions: for MIC / MBC: Pseudomonas aeruginosa; for MIC: ATCC27853, 24 h, read-out: MIC, Pa ATCC 27853; for MIC / MIC, Pa ATCC 27853: broth microdilution, 35°C, 24 h; for MBC: ATCC27853, ≥99.9% reduction of original inoculum, read-out: MBC, Pa ATCC 27853
Source text: as §2, §3, §4

[6] = tested on: Aspergillus niger ATCC 16404; assay: Broth microdilution antifungal susceptibility (MIC/MFC); type: cell-based; conditions: for MIC / MFC: Aspergillus niger; for MIC: ATCC16404, 48 h, read-out: MIC, An ATCC 16404; for MIC / MIC, An ATCC 16404: broth microdilution, 35°C, 48 h; for MFC: ATCC16404, ≥99.9% reduction of original inoculum, read-out: MFC, An ATCC 16404
Source text: as §2, §3, §4

[7] = tested on: Aspergillus fumigatus ATCC 16424; assay: as above; type: cell-based; conditions: for MIC / MFC: Aspergillus fumigatus; for MIC: ATCC16424, 48 h, read-out: MIC, Af ATCC 16424; for MIC / MIC, Af ATCC 16424: broth microdilution, 35°C, 48 h; for MFC: ATCC16424, ≥99.9% reduction of original inoculum, read-out: MFC, Af ATCC 16424
Source text: as §2, §3, §4

[8] = tested on: Candida albicans ATCC 90028; assay: as above; type: cell-based; conditions: Candida albicans, ATCC90028; ≥99.9% reduction of original inoculum; read-out: MFC, Ca ATCC 90028
Source text: as §2, §3, §4

[9] = tested on: Candida glabrata ATCC 90030; assay: as above; type: cell-based; conditions: Nakaseomyces glabratus, ATCC90030; ≥99.9% reduction of original inoculum; read-out: MFC, Cg ATCC 90030
Source text: as §2, §3, §4

[10] = tested on: L. donovani promastigotes; assay: Anti-leishmanial screening at 100 μM, parasite viability by microscopy; type: cell-based, Leishmania donovani; conditions: 100 μM, 72 h, phase contrast microscope
Method: as §1
Nitrostyrine series were screened for their antileishmanial activity against L. donovani promastigotes in vitro. Promastigotes of L. donovani (2 × 10^6 cells/mL) in M199 medium were incubated at 22°C for 72 h with each compound at a concentration of 100 μM. Amphotericin B (AmB) served as reference drug, 0.2% DMSO was used as solvent control. Parasites with media alone were taken as control. Parasite viability was determined microscopically after 72 h (Islamuddin et al., [2014b]).

Structure (SMILES)	IC50 [1]	melting point	MIC [2]	MBC [2]	MIC, Ec ATCC 25922 [2]	MIC [3]	MBC [3]	MIC, Se ATCC 14990 [3]	MIC [4]	MBC [4]	MIC, Sa ATCC 29213 [4]	MIC [5]	MBC [5]	MIC, Pa ATCC 27853 [5]	MIC [6]	MFC [6]	MIC, An ATCC 16404 [6]	MIC [7]	MFC [7]	MIC, Af ATCC 16424 [7]	also measured
CC/C(=C\c1cccc(O)c1)[N+](=O)[O-] [Compound 21, 3-((E)-2-nitrobut-1-enyl) phenol]	28.4 ± 3.11 µM	82 to 84 °C	16 to 32 µg/mL (≈ 82.8 to 166 µM)	64 µg/mL (≈ 331 µM)	32 µg/mL (≈ 166 µM)	2 to 16 µg/mL (≈ 10.4 to 82.8 µM)	2 µg/mL (≈ 10.4 µM)	2 µg/mL (≈ 10.4 µM)	2 to 32 µg/mL (≈ 10.4 to 166 µM)	4 µg/mL (≈ 20.7 µM)	2 µg/mL (≈ 10.4 µM)	16 to 32 µg/mL (≈ 82.8 to 166 µM)	64 µg/mL (≈ 331 µM)	32 µg/mL (≈ 166 µM)	2 to 4 µg/mL (≈ 10.4 to 20.7 µM)	8 µg/mL (≈ 41.4 µM)	4 µg/mL (≈ 20.7 µM)	4 to 8 µg/mL (≈ 20.7 to 41.4 µM)	8 µg/mL (≈ 41.4 µM)	8 µg/mL (≈ 41.4 µM)	MFC [8]: 32 µg/mL (≈ 166 µM); MFC [9]: 16 µg/mL (≈ 82.8 µM); Parasite viability after treatment [10]: All the parasites were found to be dead
C/C(=C\c1cccc(O)c1)[N+](=O)[O-] [Compound 20, 3-((E)-2-nitroprop-1-enyl) phenol]	63.2 ± 2.06 µM	96 to 98 °C	16 to 32 µg/mL (≈ 89.3 to 179 µM)	16 µg/mL (≈ 89.3 µM)	16 µg/mL (≈ 89.3 µM)	2 to 16 µg/mL (≈ 11.2 to 89.3 µM)	2 µg/mL (≈ 11.2 µM)	2 µg/mL (≈ 11.2 µM)	2 to 32 µg/mL (≈ 11.2 to 179 µM)	4 µg/mL (≈ 22.3 µM)	2 µg/mL (≈ 11.2 µM)	16 to 32 µg/mL (≈ 89.3 to 179 µM)	32 µg/mL (≈ 179 µM)	16 µg/mL (≈ 89.3 µM)	2 to 4 µg/mL (≈ 11.2 to 22.3 µM)	4 µg/mL (≈ 22.3 µM)	4 µg/mL (≈ 22.3 µM)	4 to 8 µg/mL (≈ 22.3 to 44.6 µM)	8 µg/mL (≈ 44.6 µM)	8 µg/mL (≈ 44.6 µM)	Anti-leishmanial activity, in words (compounds with IC50 determined) ([1]; L. donovani promastigotes): moderately active; MFC [8]: 16 µg/mL (≈ 89.3 µM); MFC [9]: 8 µg/mL (≈ 44.6 µM); Parasite viability after treatment [10]: All the parasites were found to be dead
